# According to PMC5259778, “Candidate pheromone receptors of codling moth Cydia pomonella respond to pheromones and kairomones” (Scientific Reports, 2017):
# Experiments:
# CpomOrco + OR1 = test: Whole-cell patch-clamp recording of HEK293T cells expressing CpomOrco + OR1; format: cell-based, Cydia pomonella; conditions: VUAA3 200 μM, n = 37
# Method: To test transient expression of CpomORs for calcium imaging or patch-clamp recording experiments, 35-mm petri dishes containing semi-confluent HEK293T cells were transiently transfected. To transfect cells with CpomOrco, we used 1.0 μg of pcDNA5/TO/CpomOrco DNA. In order to promote expression of the OR[51], we used double aliquots for pcDNA5/TO/CpomOR DNAs (2.0 μg), combined with 1.0 μg of pcDNA5/TO/CpomOrco for co-transfections (CpomOrco + ORs). […] In patch-clamp recordings, 1.0 μg of a separate plasmid DNA (pXOOM, Clontech) carrying the coding sequence for a green fluorescent protein (GFP) was used to report expression. In order to report candidate OR-expressing cells, expression of both fluorescent reporter genes was under the regulation of the same promoter for CpomOR genes (CMV). Transfection DNAs were dissolved in 100 μL sterile DMEM, mixed with 3.0 μL Calfectin (SignaGen, Rockville, MD, USA) following the recommended protocol. […] The currents were measured with a 200B patch-clamp amplifier (Molecular Devices) and a digital interface (Digidata 1320 A, Molecular Devices), low pass filtered at 5.0 kHz, sampled at 1-2 kHz. […] The OR channel current noise was recorded using outside-out patches excised from HEK293T cells and evoked by stimulation with 250 μM VUAA3. […]
# [1] = test system: Un-transfected cells (HEK293T); test: Whole-cell patch-clamp recording of un-transfected HEK293T cells; format: cell-based, human; conditions: 12 cells tested
# Method: The OR channel activity was investigated using whole-cell and outside-out patch-clamp recordings. The currents were measured with a 200B patch-clamp amplifier (Molecular Devices) and a digital interface (Digidata 1320 A, Molecular Devices), low pass filtered at 5.0 kHz, sampled at 1-2 kHz. […] OR channel related currents were investigated at a holding potential of -50/+50 mV unless otherwise specified. The polarity of the currents/voltages was presented relative to intracellular membrane surface. Appropriate corrections for liquid junction potentials were made when necessary. Patch pipettes were fabricated from borosilicate capillary glass (BF150-86-10, Sutter Instrument, CA, USA) using a Flaming-Brown micropipette puller (P-87, Sutter Instrument). Only patches with initial cell-attached seal resistance estimated higher than 1.0 GOhms were used in the experiments. Intracellular (pipette) solution for whole-cell experiments was NaCl 140 mM, EGTA 0.5 mM, Hepes 10 mM, pH 7.4 (adjusted with Tris-base, standard Na^+ 140 mM), while bath solution was usually NaCl 140 mM, CaCl2 1.0 mM, MgCl2 0-1.0 mM, KCl 5.0 mM, Hepes 10 mM, pH 7.4 (adjusted with Tris-base or NaOH). The OR channel current noise was recorded using outside-out patches excised from HEK293T cells and evoked by stimulation with 250 μM VUAA3. […]
compound,measurement,setting,value
"CCn1c(SCC(=O)Nc2ccc(C(C)C)cc2)nnc1-c1ccncc1 [VUAA3, acetamide,2-[[4-ethyl-5-(4-pyridinyl)-4H-1,2,4-triazol-3-yl]thio]-N-[4-(1-methylethyl)phenyl]-]","inward current amplitude, variation",CpomOrco + OR1,−49 to −1165 pA
same,inward current mean amplitude,CpomOrco + OR1,−431 ± 54 pA
same,sensitivity of un-transfected cells,[1],not sensitive
